Data from patent US10709684B2, “SGLT-2 inhibitors for treating metabolic disorders in patients with renal impairment or chronic kidney disease” (Merck Sharp & Dohme Corp., priority 2014, dated 2020).
Read-outs that look alike come from different tables or passages of the source.

Assays:
Assay type in all cases: in vivo, human
[1] = system: urinary glucose excretion; experiment: Phase 1 single dose study: pharmacodynamics, 24-hour urinary glucose excretion (UGE24); settings: single 15 mg oral dose; for Change from baseline in UGE24: fasted, geometric mean
Description: (§1) Results of a Phase I, Single Dose Study to Study the Effect of Renal Impairment on the Pharmacokinetics and Pharmacodynamics of Ertugliflozin in Subjects with Type 2 Diabetes Mellitus (T2DM)
(§2) Ertugliflozin inhibits renal glucose reabsorption resulting in urinary glucose excretion, thereby reducing plasma glucose and HbA1c. The glycemic efficacy of SGLT2 inhibitors depends on the amount of glucose filtered through the kidney and the kidney is potentially a site of ertugliflozin metabolism. As renal impairment (RI) is a co-morbidity of T2DM, this study evaluated the effect of RI on the pharmacokinetics, pharmacodynamics (as measured by 24-hour urinary glucose excretion [UGE24]), safety, and tolerability of ertugliflozin in subjects with T2DM.
(§3) In this Phase 1, multi-center, open-label study, a single 15 mg oral dose of ertugliflozin was administered in the fasted state to healthy and T2DM subjects with normal renal function (estimated glomerular filtration rate [eGFR]≥90 mL/min) and in T2DM subjects with mild RI (eGFR 60-89 mL/min), moderate RI (eGFR 30-59 mL/min) and severe RI (eGFR<30 mL/min). Serial blood samples and urine samples at specified intervals were collected for 96 hours post-dose for pharmacokinetic evaluation and for measurement of UGE24.

[2] = Phase 1 single dose study: pharmacokinetics of ertugliflozin in renal impairment; settings: single 15 mg oral dose; for AUC(0-inf) / Cmax: geometric mean
Description: as §1, §2, §3

[3] = system: healthy and T2DM subjects; experiment: Phase 1 single dose study: safety and tolerability; settings: single 15 mg dose; subjects with normal renal function and T2DM subjects with renal impairment
Description: as §2, §3

[4] = Healthy Normal renal function (eGFR>=90 mL/min), n = 8, fasted
[5] = T2DM Normal renal function (eGFR>=90 mL/min), n = 6, fasted

AUC(0-inf) [2, 4]: 1.236 µg·h/mL
Cmax [2, 4]: 0.219 µg/mL
Cmax ([2]; T2DM Mild RI (eGFR 60-89 mL/min), n = 8, fasted): 0.313 µg/mL
Cmax ([2]; T2DM Moderate RI (eGFR 30-59 mL/min), n = 8, fasted): 0.306 µg/mL
AUC(0-inf) [2, 5]: 1.199 µg·h/mL
Cmax [2, 5]: 0.216 µg/mL
Cmax ([2]; T2DM Severe RI (eGFR<30 mL/min), n = 6, fasted): 0.196 µg/mL
effect of renal insufficiency on systemic exposure ([2]; compared to subjects with normal renal function): moderately increased
AUC(0-inf) ([2]; human, in vivo, po, 15 mg, T2DM Mild RI (eGFR 60-89 mL/min), n = 8, fasted, read-out: AUC0-inf): 1.91 µg·h/mL
AUC(0-inf) ([2]; human, in vivo, po, 15 mg, T2DM Moderate RI (eGFR 30-59 mL/min), n = 8, fasted, read-out: AUC0-inf): 2.08 µg·h/mL
AUC(0-inf) ([2]; human, in vivo, po, 15 mg, T2DM Severe RI (eGFR<30 mL/min), n = 6, fasted, read-out: AUC0-inf): 1.9 µg·h/mL
exposures in healthy subjects versus T2DM subjects with normal renal function ([2]; fasted): similar
Compound: CCOc1ccc(Cc2cc([C@]34OC[C@](CO)(O3)[C@@H](O)[C@H](O)[C@H]4O)ccc2Cl)cc1 [Ertugliflozin, (1S,2S,3S,4R,5S)-5-[4-chloro-3-(4-ethoxy-benzyl)-phenyl]-1-hydroxymethyl-6,8-dioxa-bicyclo[3.2.1]octane-2,3,4-triol]
Change from baseline in UGE24 ([1]; Healthy Normal renal function (eGFR>=90 mL/min), n = 8): 46.3 g
Change from baseline in UGE24 ([1]; T2DM Mild RI (eGFR 60-89 mL/min), n = 8): 36.0 g
Change from baseline in UGE24 ([1]; T2DM Moderate RI (eGFR 30-59 mL/min), n = 8): 27.6 g
Change from baseline in UGE24 ([1]; T2DM Normal renal function (eGFR>=90 mL/min), n = 6): 72.3 g
Change from baseline in UGE24 ([1]; T2DM Severe RI (eGFR<30 mL/min), n = 6): 10.1 g
UGE24 trend with renal function ([1]; despite the higher exposure): decreased with declining renal function
tolerability [3]: well tolerated
